Legend:
[1] = tested on: natural pigmentation of the tail of SKH HR2 mice; assay: Depigmenting activity on natural pigmentation, tail of non-irradiated SKH HR2 mice (clinical pigmentation score); format: in vivo; conditions: non-irradiated SKH HR2 mouse tail, hydroquinone 3%, adapalene 0.1% in acetone, topical, 5 days per week for 8 weeks, score 0 to -4
Protocol: The depigmenting activity is measured on the natural pigmentation after application of the test product to the tail of non-irradiated animals.
The treatment is carried out for 5 days per week for 8 weeks. […] On the days for irradiation, the treatment is applied after irradiation.
The evaluation is made by different clinical observations: once per week before irradiation, the pigmentation is evaluated by virtue of a score on a scale from 0 to 4. The distribution of the scores is the following: • −0: natural pigmentation • depigmentation scale: scores −1 to −4 • −1: light depigmentation • −2: moderate depigmentation • −3: marked depigmentation • −4: total depigmentation • pigmentation scale: scores 1 to 4 • 1: light pigmentation • 2: moderate pigmentation • 3: marked pigmentation • 4: intense pigmentation

[2] = tested on: UV-induced pigmentation of the tail of SKH HR2 mice; conditions: SKH HR2 mouse tail irradiated with UV-B 90 mJ/cm^2 3 times per week for 8 weeks; hydroquinone 3%, adapalene 0.1% topical; score 1 to 4
Protocol: The depigmenting activity is measured on the natural pigmentation after application of the test product to the tail of non-irradiated animals. The anti-pigmenting activity is measured by the inhibition of the induction of the UV-induced pigmentation: the test product is applied to the tail of animals irradiated with UV-B. The treatment is carried out for 5 days per week for 8 weeks. […] On the days for irradiation, the treatment is applied after irradiation. The animals are irradiated 3 times per week for 8 weeks (Monday, Wednesday, Friday) at the dose of 90 mJ/cm^2 of UV-B. The evaluation is made by different clinical observations: once per week before irradiation, the pigmentation is evaluated by virtue of a score on a scale from 0 to 4. The distribution of the scores is the following: • −0: natural pigmentation • depigmentation scale: scores −1 to −4 • −1: light depigmentation • −2: moderate depigmentation • −3: marked depigmentation • −4: total depigmentation • pigmentation scale: scores 1 to 4 • 1: light pigmentation • 2: moderate pigmentation • 3: marked pigmentation • 4: intense pigmentation

Row | SMILES | Depigmenting activity (effect on natural pigmentation) [1] | Depigmenting activity (effect on natural pigmentation) ([1]; listed as adapalene) | Anti-pigmenting activity (inhibition of UV-B-induced pigmentation) [2]
1 | COc1ccc(-c2ccc3cc(C(=O)O)ccc3c2)cc1C12CC3CC(CC(C3)C1)C2 [Adapalene, 6-[3-(1-adamantyl)-4-methoxyphenyl]-2-naphthanoic acid] | does not modify the natural pigmentation | no depigmenting activity | 
2 | Oc1ccc(O)cc1 [hydroquinone] | statistically significant depigmentation at the end of the study |  | anti-pigmenting effect at the 6th and at the 7th week (D50) which becomes less marked at the end of the study

Reference: patent US20050163731A1, “Skin depigmenting compositions comprising adapalene and at least one depigmenting active agent” (GALDERMA RESEARCH & DEVELOPMENT, S.N.C., priority 2002, published 2005)
